Experimental data: patent US20160367659A1, “VIRAL PEPTIDES” (EQUIGERMINAL SA, priority 2013, published 2016)
Where a SMILES comes first, the peptide text is derived from it. [ ]: non-standard residue; d: D form. The star is where a group is joined. Sta = CC(C)C[C@H](N)[C@@H](O)CC(=O)O; Isovaleryl = CC(C)CC(=O)*

How the values were obtained:
[1] = test system: protease activity of NEV fractions; assay: In vitro protease cleavage activity of NEV viral protein fractions (fluorescence assay); format: biochemical; settings: inhibitor 10 μM; Phe-Phe substrate pH 3 and 4, HIV substrate 1 pH 5; fractions 12, 15 and 16
Protocol: To assess for in vitro proteolytic cleavage activity, cell infections were performed in serum free media conditions. Day 5-7 p.i. viral particles were concentrated and extensively washed with HBSS in Vivaspin 100 kDa (Sartorius) columns. Concentrated viral particles were lysed in 0.1% SDS and submitted to analytical size-exclusion chromatography on a Superdex 200 5/150 GL (GE Healthcare Life Sciences) column connected to a Prominence HPLC system (Shimadzu Corporation, Tokyo, Japan). The column was equilibrated in 20 mM phosphate buffer pH 7.5 containing 150 mM NaCl.
The protease activity was determined by fluorescence assays in 96-well plates in a Gemini EM Fluorescence Microplate Reader, using the HIV Protease Substrate 1 Arg-Glu(EDANS)-Ser-Gln-Asn-Tyr-Pro-Ile-Val-Gln-Lys(DABCYL)-Arg (Sigma Aldrich) or the Phe-Phe substrate. For determination of the pH profile, viral particles were assayed for activity at 37° C. in buffers ranging between pH 3 and 6 (50 mM sodium acetate pH 3.0, 4.0, 5.0, and 6.0; 50 mM Tris-HCl […]) containing 100 mM NaCl. To test the specificity of enzymatic cleavage, Indinavir (Sigma Aldrich), a specific inhibitors of HIV protease, or pepstatin were used. The protease was pre-incubated in the presence of the inhibitor. […] The rate of substrate hydrolysis was monitored for 3 hours by the increase of intensity with excitation/emission wavelengths of 328/393 nm.

mab#4G6E4 = assay: ELISA dose response of mab#4G6E4 on peptide-coated wells; format: binding, Mouse
Protocol: For that, serial dilutions of peptides in duplicates (1:1.3 or 1:1.4 in 0.05M carbonate buffer pH=9.3) ranging between 5 to 500 ng/mL were covalently linked to 96 microwell Poylsorp amino plates (Nunc, Thermofisher) for two hours at room temperature. To remove unbound peptide, plates were washed three times with PBS-Tween20 (0.005%) in an automated Wellwasher apparatus (Thermoscientific). After washing, plates were blocked by adding 300 microliters/well of Superblock T20 in PBS (Thermoscientific, Pierce). Superblock T20 was immediately removed and plates inverted till drying out. After blocked and dried plates were ready for c-ELISA or to be stored at 4-8° C. for further testing. […]
A rapid (2 hours) c-ELISA procedure was performed as follows: 70 ng/mL of mab#4G6E4 alone (50 microliters) diluted in dilution buffer was added to peptide-coated wells and incubated for 1 hour at 37° C. After 1 hour of incubation plates were extensively washed with 300 microliters of PBS-Tween20 (0.05%) for three times. The plate was after that incubated with a secondary goat anti-mouse IgG-HRP (Sigma Aldrich) at 1:2500 dilution and incubated for 30 minutes at 37° C. Plates were washed again four times with 300 microliters of PBS-Tween20 (0.05%) and signal developed by adding 50 microliters of fresh TMB reagent (Sigma Aldrich) for 15 minutes at room temperature. After colour development the reaction was stopped by adding 50 microliters of 1N H2SO4 (Sigma Aldrich). Determination of absorbance was obtained by reading plates at 450 nm in a Multiskan Go ELISA reader (Thermoscientific).
Dose responses curves were analysed by GraphPad Prism 6.0 software by using the four parameter function log(agonist) vs response with a variable slope. […] The Hill slope was very high for both peptides 7.2 for SEQ ID NO: 159 and 6.6 for SEQ ID NO: 20. The results are indicating high affinity between the mab and the peptide sequences (FIG. 6A1).
Furthermore dose response curves were optimized in order to decrease the Hill Slope and turn the assay more sensitive. […]

[2] = 70 ng/mL mab#4G6E4 diluted in 3% BSA, peptide 5 to 500 ng/mL, four parameter fit

Molecule | inhibition of the protease activity of NEV fractions [1] | EC50 (mab#4G6E4; [2]) [ng/mL] | EC50 (mab#4G6E4; mab#4G6E4 (70 ng/mL) in 0.025% casein blocking instead of 3% BSA) [ng/mL]
CC(C)(C)NC(=O)[C@@H]1CN(Cc2cccnc2)CCN1C[C@@H](O)C[C@@H](Cc1ccccc1)C(=O)N[C@H]1c2ccccc2C[C@H]1O [Indinavir] | able to inhibit |  | 
CC(C)CC(=O)N[C@H](C(=O)N[C@H](C(=O)N[C@@H](CC(C)C)[C@@H](O)CC(=O)N[C@@H](C)C(=O)N[C@@H](CC(C)C)[C@@H](O)CC(=O)O)C(C)C)C(C)C [pepstatin] (Isovaleryl-VV[Sta]A[Sta]-OH) | able to inhibit |  | 
EALDKIEEIQNKNKQKAAAQEQNPPPSVSLRSLFG [SEQ ID NO: 159] |  | 163.5 | 59
QEQNPPPSVSLRSLFGNDPL [SEQ ID NO: 20] |  | 193.7 | 
